Measured values published in patent US10508085B2, “Compounds and methods for IDO and TDO modulation, and indications therefor” (Plexxikon Inc., priority 2016, dated 2019).

Experiments:
[1] = molecular target: T1, human TDO (TDO-expressing HEK293 cells) (Homo sapiens, UniProt P48775); test: Cell based kynurenine assay, TDO-expressing HEK293 cell clones; details: TDO-expressing HEK293 cells, 24 hours, geometric mean; read-out: HEK293 TDO Kynurenine GMean IC50 (μM) (Cellular Assay)
T1 construct: expressed in transfected cells
T1 sequence (P48775 whole entry): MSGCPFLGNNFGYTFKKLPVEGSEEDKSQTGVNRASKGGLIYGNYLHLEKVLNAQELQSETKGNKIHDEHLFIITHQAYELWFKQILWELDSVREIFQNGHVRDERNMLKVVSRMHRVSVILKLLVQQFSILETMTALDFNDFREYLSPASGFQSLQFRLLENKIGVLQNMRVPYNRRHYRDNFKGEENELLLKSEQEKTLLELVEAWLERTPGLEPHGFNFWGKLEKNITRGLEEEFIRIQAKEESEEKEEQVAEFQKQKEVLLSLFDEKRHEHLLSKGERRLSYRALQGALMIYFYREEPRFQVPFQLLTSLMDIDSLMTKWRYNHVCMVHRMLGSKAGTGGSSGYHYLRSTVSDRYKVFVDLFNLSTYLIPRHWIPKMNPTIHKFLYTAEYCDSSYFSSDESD
In short: (§1)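 Cellular IDO1 and TDO activity is followed as kynurenine released by stably transfected HEK293 clones over 24 h with test compound. Controls are DMSO-treated cells and media alone.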

[2] = molecular target: T2, human IDO (IDO1-expressing HEK293 cells) (Homo sapiens, UniProt P14902); test: Cell based kynurenine assay, IDO1-expressing HEK293 cell clones; details: IDO1-expressing HEK293 cells, 24 hours, geometric mean; read-out: HEK293 IDO1 Kynurenine GMean IC50 (μM) (Cellular Assay)
T2 construct: expressed in transfected cells
T2 sequence (P14902 whole entry): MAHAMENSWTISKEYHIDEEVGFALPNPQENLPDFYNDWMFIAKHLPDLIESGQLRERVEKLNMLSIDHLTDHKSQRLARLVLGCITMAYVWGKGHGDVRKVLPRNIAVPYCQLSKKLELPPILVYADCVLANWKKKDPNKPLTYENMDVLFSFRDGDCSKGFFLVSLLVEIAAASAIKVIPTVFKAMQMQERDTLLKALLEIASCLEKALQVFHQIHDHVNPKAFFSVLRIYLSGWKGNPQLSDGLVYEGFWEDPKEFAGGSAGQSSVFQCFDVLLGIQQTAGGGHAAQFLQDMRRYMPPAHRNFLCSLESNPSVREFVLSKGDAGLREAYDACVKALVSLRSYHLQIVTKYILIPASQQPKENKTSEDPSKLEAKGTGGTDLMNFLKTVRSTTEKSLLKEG
In short: as §1

[3] = molecular target: T3, Human Tryptophan 2,3-dioxygenase (TDO) (Homo sapiens, UniProt P48775); test: Human TDO enzymatic assay (kynurenine level); type: biochemical; details: 1 nM TDO, 350 μM L-Trp; geometric mean; read-out: TDO GMean: IC50 (μM) (Biochemical Assay)
T3 construct: His tag (N); made in house; host or cells: E. coli
T3 sequence (P48775 whole entry): as the sequence (P48775 whole entry) above
In short: (§2)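 Compound is mixed with His-tagged enzyme from E. coli in pH 6.5 phosphate buffer containing ascorbate, methylene blue and catalase, at room temperature. IDO uses 6 nM enzyme and 10 μM Trp for 20 min. TDO uses 1 nM enzyme and 350 μM Trp for 70 min. TCA stops the reaction, and IC50 is derived from kynurenine levels.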

[4] = molecular target: T4, Human Indoleamine 2,3-dioxygenase (IDO) (Homo sapiens, UniProt P14902); test: Human IDO enzymatic assay (kynurenine level); type: biochemical; details: 6 nM IDO, 10 μM L-Trp; geometric mean; read-out: IDO1 GMean: IC50 (μM) (Biochemical Assay)
T4 construct: His tag (N); made in house; host or cells: E. coli
T4 sequence (P14902 whole entry): as the sequence (P14902 whole entry) above
In short: as §2

IC50 [1] | IC50 [2] | IC50 [3] | IC50 [4] | Compound
0.0001 to 10 µM | 0.0001 to 10 µM | 0.0001 to 10 µM | 0.0001 to 10 µM | O=C(Cc1ccc(Cl)cc1)N1CCC(C(F)(F)C(O)c2cc(Cl)cc3cn[nH]c23)CC1 (centres unmarked) [Compound P-0494, 1-(4-(2-(5-chloro-1H-indazol-7-yl)-1,1-difluoro-2-hydroxyethyl)piperidin-1-yl)-2-(4-chlorophenyl)ethan-1-one]
0.0001 to 10 µM | 0.0001 to 10 µM | 0.0001 to 10 µM | 0.0001 to 10 µM | O=C(Cc1ccc(Cl)nc1)N1CCC(C(F)(F)C(O)c2cc(Cl)cc3cn[nH]c23)CC1 (centres unmarked) [Compound P-0495, 1-(4-(2-(5-chloro-1H-indazol-7-yl)-1,1-difluoro-2-hydroxyethyl)piperidin-1-y1)-2-(6-chloropyridin-3-yl)ethan-1-one]
0.0001 to 10 µM | 0.0001 to 10 µM | 0.0001 to 10 µM | 0.0001 to 10 µM | COc1ccc(CC(=O)N2CCC(C(F)(F)C(O)c3cc(Cl)cc4cn[nH]c34)CC2)cc1 (centres unmarked) [Compound P-0496, 1-(4-(2-(5-chloro-1H-indazol-7-yl)-1,1-difluoro-2-hydroxyethyl)piperidin-1-yl)-2-(4-methoxyphenyl) ethan-1-one]
0.0001 to 10 µM | 0.0001 to 10 µM | 0.0001 to 10 µM | 0.0001 to 10 µM | CC(C)(C1CCN(C(=O)CN2CCS(=O)(=O)CC2)CC1)[C@H](O)c1cc(Cl)cc2cn[nH]c12 [Compound P-0497, (S)-1-(4-(1-(5-chloro-1H-indazol-7-yl)-1-hydroxy-2-methylpropan-2-yl)piperidin-l-yl)-2-(1,1-dioxidothiomorpholino) ethan-1-one]
0.0001 to 10 µM | 0.0001 to 10 µM | 0.0001 to 10 µM | 0.0001 to 10 µM | CC(C)(C1CCN(C(=O)C2CCC2)CC1)[C@H](O)c1cc(Cl)cc2cn[nH]c12 [Compound P-0498, (S)-(4-(1-(5-chloro-1H-indazol-7-yl)-1-hydroxy-2-methylpropan-2-yl)piperidin-1-yl)(cyclobutyl)methanone]
0.0001 to 10 µM | 0.0001 to 10 µM | 0.0001 to 10 µM | 0.0001 to 10 µM | CC(C)(C1CCN(C(=O)NCCO)CC1)[C@H](O)c1cc(Cl)cc2cn[nH]c12 [Compound P-0499, (S)-4-(1-(5-chloro-1H-indazol-7-yl)-1-hydroxy-2-methylpropan-2-yl)-N-(2-hydroxyethyl)piperidine-1-carboxamide]
0.0001 to 10 µM | 0.0001 to 10 µM | 0.0001 to 10 µM | 0.0001 to 10 µM | CC(C)(C1CCN(C(=O)CN2CCOCC2)CC1)[C@H](O)c1cc(Cl)cc2cn[nH]c12 [Compound P-0501, (S)-1-(4-(1-(5-chloro-1H-indazol-7-yl)-1-hydroxy-2-methylpropan-2-yl)piperidin-1-yl)-2-morpholinoethan-1-one]
0.0001 to 10 µM | 0.0001 to 10 µM | 0.0001 to 10 µM | 0.0001 to 10 µM | CC(C)(C1CCN(C(=O)CC2CCS(=O)(=O)CC2)CC1)[C@H](O)c1cc(Cl)cc2cn[nH]c12 [Compound P-0502, (S)-1-(4-(1-(5-chloro-1H-indazol-7-yl)-1-hydroxy-2-methylpropan-2-yl)piperidin-1-yl)-2-(1,1-dioxidotetrahydro-2H-thiopyran-4-yl)ethan-1-one]
0.0001 to 10 µM | 0.0001 to 10 µM | 0.0001 to 10 µM | 0.0001 to 10 µM | CC(C)(C1CCN(C(=O)Nc2ccc(C#N)cc2)CC1)[C@H](O)c1c(F)c(Cl)cc2cn[nH]c12 [Compound P-0503, (S)-4-(1-(5-chloro-6-fluoro-1H-indazol-7-yl)-1-hydroxy-2-methylpropan-2-yl)-N-(4-cyanophenyl) piperidine-1-carboxamide]
0.0001 to 10 µM | 0.0001 to 10 µM | 0.0001 to 10 µM | 0.0001 to 10 µM | CC(C)(C1CCN(C(=O)C2CC2)CC1)[C@H](O)c1c(F)c(Cl)cc2cn[nH]c12 [Compound P-0504, (S)-(4-(1-(5-chloro-6-fluoro-1H-indazol-7-yl)-1-hydroxy-2-methylpropan-2-yl)piperidin-1-yl)(cyclopropyl) methanone]
0.0001 to 10 µM | 0.0001 to 10 µM | 0.0001 to 10 µM | 0.0001 to 10 µM | CC(C)(C1CCN(C(=O)CC#N)CC1)[C@H](O)c1c(F)c(Cl)cc2cn[nH]c12 [Compound P-0505, (S)-3-(4-(1-(5-chloro-6-fluoro-1H-indazol-7-yl)-1-hydroxy-2-methylpropan-2-yl)piperidin-1-yl)-3-oxopropanenitrile]
0.0001 to 10 µM | 0.0001 to 10 µM | 0.0001 to 10 µM | 0.0001 to 10 µM | COCC(=O)N1CCC(C(C)(C)[C@H](O)c2c(F)c(Cl)cc3cn[nH]c23)CC1 [Compound P-0506, (S)-1-(4-(1-(5-chloro-6-fluoro-1H-indazol-7-yl)-1-hydroxy-2-methylpropan-2-yl)piperidin-1-yl)-2-methoxyethan-1-one]
0.0001 to 10 µM | 0.0001 to 10 µM | 0.0001 to 10 µM | 0.0001 to 10 µM | CC(C)(C1CCN(C(=O)C2CCOCC2)CC1)[C@H](O)c1c(F)c(Cl)cc2cn[nH]c12 [Compound P-0507, (S)-(4-(1-(5-chloro-6-fluoro-1H-indazol-7-yl)-1-hydroxy-2-methylpropan-2-yl)piperidin-1-yl)(tetrahydro-2H-pyran-4-yl)methanone]
0.0001 to 10 µM | 0.0001 to 10 µM | 0.0001 to 10 µM | 0.0001 to 10 µM | CNC(=O)N1CCC(C(C)(C)[C@H](O)c2c(F)c(Cl)cc3cn[nH]c23)CC1 [Compound P-0508, (S)-4-(1-(5-chloro-6-fluoro-1H-indazol-7-yl)-1-hydroxy-2-methylpropan-2-yl)-N-methylpiperidine-1-carboxamide]
0.0001 to 10 µM | 0.0001 to 10 µM | 0.0001 to 10 µM | 0.0001 to 10 µM | CC(C)(C1CCN(C(=O)NC2CC2)CC1)[C@H](O)c1c(F)c(Cl)cc2cn[nH]c12 [Compound P-0509, (S)-4-(1-(5-chloro-6-fluoro-1H-indazol-7-yl)-1-hydroxy-2-methylpropan-2-yl)-N-cyclopropylpiperidine-1-carboxamide]
0.0001 to 10 µM | 0.0001 to 10 µM | 0.0001 to 10 µM | 0.0001 to 10 µM | COCCNC(=O)N1CCC(C(C)(C)[C@H](O)c2c(F)c(Cl)cc3cn[nH]c23)CC1 [Compound P-0510, (S)-4-(1-(5-chloro-6-fluoro-1H-indazol-7-yl)-1-hydroxy-2-methylpropan-2-yl)-N-(2-methoxyethyl) piperidine-1-carboxamide]
0.0001 to 10 µM | 0.0001 to 10 µM | 0.0001 to 10 µM | 0.0001 to 10 µM | CC(C)(C1CCN(C(=O)NCC(F)(F)F)CC1)[C@H](O)c1c(F)c(Cl)cc2cn[nH]c12 [Compound P-0511, (S)-4-(1-(5-chloro-6-fluoro-1H-indazol-7-yl)-1-hydroxy-2-methylpropan-2-yl)-N-(2,2,2-trifluoroethyl) piperidine-1-carboxamide]
0.0001 to 10 µM | 0.0001 to 10 µM | 0.0001 to 10 µM | 0.0001 to 10 µM | CC(C)(C1CCN(C(=O)Nc2ccc(F)cc2)CC1)[C@H](O)c1c(F)c(Cl)cc2cn[nH]c12 [Compound P-0512, (S)-4-(1-(5-chloro-6-fluoro-1H-indazol-7-yl)-1-hydroxy-2-methylpropan-2-yl)-N-(4-fluorophenyl) piperidine-1-carboxamide]
0.0001 to 10 µM | 0.0001 to 10 µM | 0.0001 to 10 µM | 0.0001 to 10 µM | CCOC(=O)NC(=O)N1CCC(C(C)(C)[C@H](O)c2c(F)c(Cl)cc3cn[nH]c23)CC1 [Compound P-0513, ethyl (S)-(4-(1-(5-chloro-6-fluoro-1H-indazol-7-yl)-1-hydroxy-2-methylpropan-2-yl)piperidine-1-carbonyl)carbamate]
0.0001 to 10 µM | 0.0001 to 10 µM | 0.0001 to 10 µM | 0.0001 to 10 µM | CC(C)(C1CCN(C(=O)NC(=O)c2ccccc2)CC1)[C@H](O)c1c(F)c(Cl)cc2cn[nH]c12 [Compound P-0514, (S)-N-benzoyl-4-(1-(5-chloro-6-fluoro-1H-indazol-7-yl)-1-hydroxy-2-methylpropan-2-yl)piperidine-1-carboxamide]
0.0001 to 10 µM | 0.0001 to 10 µM | 0.0001 to 10 µM | 0.0001 to 10 µM | CC(C)(C1CCN(S(C)(=O)=O)CC1)[C@H](O)c1c(F)c(Cl)cc2cn[nH]c12 [Compound P-0515, (S)-1-(5-chloro-6-fluoro-1H-indazol-7-yl)-2-methyl-2-(1-(methylsulfonyl)piperidin-4-yl) propan-1-ol]
0.0001 to 10 µM | 0.0001 to 10 µM | 0.0001 to 10 µM | 0.0001 to 10 µM | CC(C)(C)OC(=O)N1CCC(C(F)(F)[C@H](O)c2cc(Cl)cc3cn[nH]c23)CC1 [Compound P-0516, tert-butyl (R)-4-(2-(5-chloro-1H-indazol-7-yl)-1,1-difluoro-2-hydroxyethyl) piperidine-1-carboxylate]
> 10 µM | > 10 µM | > 200 µM | 0.0001 to 10 µM | CC(C)(C)OC(=O)N1CCC(C(F)(F)[C@@H](O)c2cc(Cl)cc3cn[nH]c23)CC1 [Compound P-0517, tert-butyl (S)-4-(2-(5-chloro-1H-indazol-7-yl)-1,1-difluoro-2-hydroxyethyl) piperidine-1-carboxylate]
